Test results from patent US20220047698A1, “SYNTHETIC INNATE IMMUNE RECEPTOR LIGANDS AND USES THEREOF” (ALBERTA RESEARCH CHEMICALS INC., priority 2018, published 2022).

Test system: BALB/c mice
Test: Mouse immunization with OVA plus adjuvant combinations, serum IgG1 / IgG2a
Type: in vivo
Settings: mice vaccinated with OVA and adjuvant combinations, subcutaneous, booster Day 21; for serum IgG1: FIG. 2; for serum IgG2a: FIG. 3
Protocol: Ability of compounds as vaccine adjuvants are assessed through their ability to induce robust immune responses in mice when administered along with a standard experimental antigen, OVA peptide, and compared the balance of Th1 and Th2 responses from their IgG1a and IgG2a responses as well as the cytokine production in mice. It is very common to see the antibody responses to many adjuvants but it is important to see the cellular responses as well which are used as therapeutic vaccines such as cancer vaccines.
Mouse Immunization: Groups of BALB/c mice were immunized with vaccine formulations wherein OVA (50 μg/dose) is combined with PZ (10 μg/dose), PIC (10 μg/dose), and adjuvant alone or in combination (20 μg/dose). In Trial 1, mice (n=8 per group) were immunized subcutaneously with 100 μl total volume with OVA alone, OVA+PZ/PI/52, OVA+52, or saline. In Trial 2, mice (n=8 per group) were immunized subcutaneously with 200 μl total volume with OVA alone, OVA+52, OVA+PZ+PIC, OVA+52+PZ+PI, OVA+(63+97) nanoparticles, or OVA+(52+63+97)nanoparticles, where the number refers to the compound number. The volume was doubled in Trial 2 because the (63+97)Np's were viscous and required more buffer to be easily injected. Mice received a booster immunization on Day 21. Blood was obtained on day 21, day 35 for both trials and 48 for trial 1 only. Mice were euthanized with isofluorane on Day 35 in Trial 2 and Day 48 in Trial 1. Spleens were isolated on day of euthanization.

Structure (SMILES) | serum IgG1 | serum IgG2a
CSCC[C@H](NC=O)C(=O)N[C@@H](CC(C)C)C(=O)N[C@@H](Cc1ccccc1)C(=O)NCCNC(=O)[C@H](CCCCN)NC(=O)[C@H](CCCCN)NC(=O)[C@H](CCCCN)NC(=O)[C@H](CO)NC(=O)[C@H](CSCC(COC(=O)CCCCCCCCCCCC(C)C)OC(=O)CCCCCCCCCCCC(C)C)NC(=O)CCCCCCCCCCCC(C)C.Cl.Cl.Cl (stereo partly drawn) [Compound 52, TrilipoCys-Ser-Lys-Lys-Lys-NH—CH2-CH2-NH-F-L-Mf] | significant increased production | significant increased production
CC(=O)N[C@@H]1[C@@H](O[C@H](C)C(=O)N[C@@H](C)C(=O)N[C@@H](CCC(=O)O)C(N)=O)[C@H](O)[C@@H](COC(=O)CCCCCCCCCCCC(C)C)O[C@H]1O [Compound 63, (S)-4-((S)-2-((R)-2-(((2R,3R,4R,5S,6R)-3-acetamido-2,5-dihydroxy-6-(((13-methyltetradecanoyl)oxy)methyl)tetrahydro-2H-pyran-4-yl)oxy)propanamido)propanamido)-5-amino-5-oxopentanoic acid] | significant increased production | significant increased production
